Laboratory results published in patent US20110171221A1, “COMPOSITIONS AND METHODS FOR THE TREATMENT OF A NEOPLASIA” (University of Florida Research Foundation, priority 2008, published 2011).
“Also recorded” adds a separate entry of the source.

What was measured:
[1] = tested on: Sox2, Oct 3/4 and Nanog expression in metastatic prostate stem cell lines; assay: Western blot of stem cell markers after Docetaxel; type: cell-based, human; settings: Docetaxel 1 nM, 2 nM, 5 nM, 10 nM
Description: (§1) Prostate cancer stem cells from metastatic prostate cancer cell lines were examined for their sensitivity to conventional cancer treatments (e.g., radiation and chemotherapy). […] Metastatic prostate stem cell lines were also treated with Docetaxel, a frontline treatment for drug-resistant cancer cells.
For the experiments described above, Western-blot analysis was performed by standard methods on isolated cancer stem cells and non-cancer stem cells. Whole cell lysates were prepared in lysis buffer with a commercially available protease inhibitor cocktail (Pierce) at 4° C., followed by centrifugation at 13,000×g for 10 min. Extracts were separated by SDS/PAGE and transferred to nitrocellulose membranes. The membranes were blocked with 5% nonfat dry milk in 20 mM Tris-HCl (pH 7.5), 500 mM sodium chloride, and 0.05% Tween 20 for 2 h and then incubated with commercially available primary antibodies against OCT3/4, c-Myc, β-actin (Cell Signaling), SOX2, Klf4 (Santa Cruz), Nanog (BioLegend), or E-cadherin (BD Bioscience) in the same buffer with 1% BSA (fraction V). After washing, the blots were incubated with an HRP-conjugated secondary antibody and visualized with a commercially available chemiluminescence detection system (Amersham). β-actin-specific Abs were used to ensure equal protein loading.

[2] = tested on: prostate cancer stem cells (CSC) and non-stem prostate cancer cells (Non-CSC); assay: cell viability after Docetaxel; type: cell-based, human; settings: 5 nM Docetaxel, Day 0, 1, 2 and 3 (up to 72 hours)
Description: FIG. 12B is a graph depicting the cell viability of prostate cancer stem cells (CSC) and non-stem prostate cancer cells (Non-CSC) observed for up to 72 hours after treatment with Docetaxel. Cell viability was determined by quantifying the surviving prostate cancer stem cells (CSC) and non-stem prostate cancer cells (Non-CSC) in the samples exposed to 5 nM Docetaxel at Day 0, 1, 2 and 3.
as §1

For `CC(=O)O[C@@]12CO[C@@H]1C[C@H](O)[C@@]1(C)C(=O)[C@H](O)C3=C(C)[C@@H](OC(=O)[C@H](O)[C@@H](NC(=O)OC(C)(C)C)c4ccccc4)C[C@@](O)([C@@H](OC(=O)c4ccccc4)[C@H]21)C3(C)C` [Docetaxel], which “detection of Sox2, Oct 3/4 and Nanog expression” value [1] is on record?
The value was “increased detection of Sox2, Oct 3/4 and Nanog expression with increasing dose”.

And the “cell viability of prostate cancer stem cells vs non-stem prostate cancer cells” value [2]?
The value was “more cell viability compared to non-stem prostate cancer cells; also recorded: resistant”.
